In patent publication US20250281572A1, “COMPOSITIONS AND METHODS FOR TREATING AND PREVENTING METABOLIC DISORDERS” (The Johns Hopkins University, priority 2022, published 2025):
Values belong to the compound of their own block, whether it stands above or below them. No end group written: not given here.

How the values were obtained:
[1] = tested on: AMPKα1; test: AMPK phosphorylation in cAMP-treated Hepa1-6 cells; format: cell-based; conditions: Hepa1-6 cells with cAMP (0.2 mM)
[2] = molecular target: AMPKα1 (AMP-activated protein kinase catalytic subunit alpha 1), FLAG-tagged, wild type (UniProt Q13131)
Target sequence in this assay (Q13131 whole entry, looked up, tested part not stated): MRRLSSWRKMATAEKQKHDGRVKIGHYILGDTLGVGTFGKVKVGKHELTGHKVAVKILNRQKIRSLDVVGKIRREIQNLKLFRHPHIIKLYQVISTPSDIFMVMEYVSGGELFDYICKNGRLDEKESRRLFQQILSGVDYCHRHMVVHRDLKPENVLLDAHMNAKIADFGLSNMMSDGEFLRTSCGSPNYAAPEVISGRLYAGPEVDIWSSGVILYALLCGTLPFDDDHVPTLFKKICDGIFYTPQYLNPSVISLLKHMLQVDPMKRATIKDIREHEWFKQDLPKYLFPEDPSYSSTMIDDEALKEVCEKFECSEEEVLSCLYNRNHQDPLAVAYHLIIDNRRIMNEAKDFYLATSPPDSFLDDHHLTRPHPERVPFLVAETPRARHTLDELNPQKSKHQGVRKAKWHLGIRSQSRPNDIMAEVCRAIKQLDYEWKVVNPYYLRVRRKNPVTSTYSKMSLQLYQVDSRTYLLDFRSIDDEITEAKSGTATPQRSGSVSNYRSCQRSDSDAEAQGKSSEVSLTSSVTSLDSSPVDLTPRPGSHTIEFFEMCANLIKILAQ

[3] = tested on: T1, peptide a1m (TPQRSGSISNYRSCQR)
T1 sequence: TPQRSGSISNYRSCQR

[4] = molecular target: AMPKα1 (AMP-activated protein kinase catalytic subunit alpha 1), FLAG-tagged, wild type (UniProt Q13131); test: cell-based or functional assay
Target sequence in this assay (Q13131 whole entry): as the sequence (Q13131 whole entry, looked up, tested part not stated) above

[5] = molecular target: AMPKα1 phosphorylated at S496 (UniProt Q13131)
[6] = molecular target: AMPKα2 phosphorylated at S491 (UniProt P54646)
[7] = molecular target: AMPKα2 (AMP-activated protein kinase catalytic subunit alpha 2) (UniProt P54646)
[8] = tested on: AMPKα1; test: In vitro phosphorylation assay of AMPKα1 at S496 by PKA or AKT; format: biochemical; conditions: in vitro assays
Procedure: (§1) In vitro phosphorylation assays. Purified AMPKα1 protein was incubated with 1 μg of PKA catalytic subunit (Millipore) or 0.54 ug of AKT1 (abcam), 1× kinase buffer (Cell signaling) and 0.2 mM ATP at room temperature for the indicated time. To test the phosphorylation of PKA-mediated AMPK phosphorylation at S496/491 on a subunit phosphorylation at T172, AMPKα subunits were phosphorylated at S496/491 by PKA at 37° C. for 1 h, followed by the addition of 25 ng LKB1-STRAD-MO25 (Millipore), then incubated at room temperature for 30 min.

[9] = tested on: AMPKα2; test: In vitro phosphorylation assay of AMPKα2 at S491 by PKA; format: biochemical
Procedure: as §1

[10] = Viable MCF-7 breast cancer cells; format: cell-based; conditions: 500 μM; read-out: reduction of viable MCF-7 cancer cells
[11] = tested on: human colon cancer Caco2 cells; test: Growth of colon cancer Caco2 cells; format: cell-based; conditions: FIG. 25b
[12] = tested on: primary hepatocytes; conditions: 10 μM, 16 h, versus control peptide TAT
Procedure: Primary hepatocytes prepared from elderly mice (78 weeks of age) were treated with 10 μM of control peptide TAT or Pa496m for 16 h.

[13] = tested on: HFD-fed mice; test: Intraperitoneal treatment of HFD-fed mice; format: in vivo, mouse; conditions: intraperitoneal 10 nMole/g/day for 5 days, then 15 nMole/g/day for another 5 days
[14] = tested on: human primary hepatocytes

Chain of AMPKα1 phosphorylated at S496 (Q13131 whole entry, looked up): as the sequence (Q13131 whole entry, looked up, tested part not stated) above
Chain of AMPKα2 phosphorylated at S491 (P54646 whole entry, looked up): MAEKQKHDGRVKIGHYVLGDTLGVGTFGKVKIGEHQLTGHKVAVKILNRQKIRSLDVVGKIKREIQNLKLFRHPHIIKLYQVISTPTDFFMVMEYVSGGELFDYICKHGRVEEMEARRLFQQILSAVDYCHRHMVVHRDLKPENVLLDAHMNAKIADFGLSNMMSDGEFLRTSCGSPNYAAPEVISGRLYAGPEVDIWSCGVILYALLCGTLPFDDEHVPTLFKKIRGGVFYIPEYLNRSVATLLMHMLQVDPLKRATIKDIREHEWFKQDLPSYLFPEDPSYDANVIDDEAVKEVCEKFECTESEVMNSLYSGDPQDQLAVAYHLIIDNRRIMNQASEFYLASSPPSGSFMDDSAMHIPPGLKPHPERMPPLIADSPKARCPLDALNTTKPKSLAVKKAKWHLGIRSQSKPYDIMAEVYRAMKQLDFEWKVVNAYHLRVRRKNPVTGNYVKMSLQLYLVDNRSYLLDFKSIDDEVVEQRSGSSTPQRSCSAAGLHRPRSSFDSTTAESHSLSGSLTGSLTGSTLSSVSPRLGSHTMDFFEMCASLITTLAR
Chain of AMPKα2 (AMP-activated protein kinase catalytic subunit alpha 2) (P54646 whole entry, looked up, tested part not stated): as the sequence (P54646 whole entry, looked up) above
Chain of AMPKβ1, FLAG-tagged (Q9R078 2-270): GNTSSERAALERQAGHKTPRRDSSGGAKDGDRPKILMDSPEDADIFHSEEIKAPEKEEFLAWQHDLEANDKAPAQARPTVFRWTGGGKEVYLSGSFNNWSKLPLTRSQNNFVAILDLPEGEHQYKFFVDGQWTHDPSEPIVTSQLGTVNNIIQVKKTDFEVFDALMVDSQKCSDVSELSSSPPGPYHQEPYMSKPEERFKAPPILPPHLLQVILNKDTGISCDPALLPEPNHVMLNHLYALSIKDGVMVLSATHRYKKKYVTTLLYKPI
Chain of AMPKγ1, FLAG-tagged (O54950 whole entry): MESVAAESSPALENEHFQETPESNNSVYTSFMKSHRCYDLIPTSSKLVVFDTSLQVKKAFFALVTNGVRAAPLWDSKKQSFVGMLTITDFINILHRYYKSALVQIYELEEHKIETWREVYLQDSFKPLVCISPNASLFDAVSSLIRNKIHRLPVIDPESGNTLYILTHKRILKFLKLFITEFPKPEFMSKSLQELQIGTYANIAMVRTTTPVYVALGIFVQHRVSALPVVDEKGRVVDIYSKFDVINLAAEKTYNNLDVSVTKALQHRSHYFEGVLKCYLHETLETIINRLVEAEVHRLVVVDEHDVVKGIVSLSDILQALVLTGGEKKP

Compound: O=S(=O)(NCCNC/C=C/c1ccc(Br)cc1)c1cccc2cnccc12 [Peptide H89]
- phosphorylation of AMPKαT172 and MFF [1]: reversed the negative effect of cAMP

Compound: AKT1 (abcam)
- in vitro phosphorylation of AMPKα1 at S496 [2]: PKA- or AKT-mediated phosphorylation of AMPKα1 at S496 in in vitro assays
- in vitro phosphorylation of AMPKα1 at S496 by AKT [3]: this peptide could effectively antagonize PKA- or AKT-mediated phosphorylation of AMPKα1 at S496 in in vitro assays

- AMPK enzymatic activity (% of enzymatic activity lost) [4]: 80
Compound: AMPKβ1, FLAG-tagged

- AMPK enzymatic activity (% of enzymatic activity lost) [4]: 80
Compound: AMPKγ1, FLAG-tagged

Compound: LKB1-STRAD-MO25 (Millipore)
- in vitro phosphorylation of AMPKα at T172 [5]: the phosphorylation at these sites decreased the phosphorylation of AMPKα at T172 by upstream kinase LKB1
- in vitro phosphorylation of AMPKα at T172 [6]: the phosphorylation at these sites decreased the phosphorylation of AMPKα at T172 by upstream kinase LKB1

Compound: PKA catalytic subunit (Millipore)
- in vitro phosphorylation of AMPKα1 at S496 [2]: PKA can directly phosphorylate AMPKα1 at S496
- in vitro phosphorylation of AMPKα2 at S491 [7]: PKA can directly phosphorylate AMPKα1 at S496 (FIGS. 3a, b) and AMPKα2 at S491 (FIG. 3c)
- in vitro phosphorylation of AMPKα1 at S496 by PKA [3]: this peptide could effectively antagonize PKA- or AKT-mediated phosphorylation of AMPKα1 at S496 in in vitro assays
- in vitro phosphorylation of AMPKα2 at S491 by PKA [3]: this targeting-peptide a1m could antagonize the phosphorylation of AMPKα2 at S491 by PKA as well

Compound: TPQRSGSISNYRSCQR [a1m, corresponds to mouse AMPKα1 from 490-505 a.a]
- PKA- or AKT-mediated phosphorylation of AMPKα1 at S496 [8]: effectively antagonize
- phosphorylation of AMPKα2 at S491 by PKA [9]: could antagonize

- growth of colon carcinoma Caco2 cells [11]: could inhibit
Compound: YGRKKRRQRRRTPQRSCSAAGLHR [Pa2-491]
- cytotoxicity [10]: > 90%

Compound: YGRKKRRQRRRTPQRSGSISNYRSCQR [Pa496m]
- cytotoxicity [10]: > 90%
- fat content in hepatocytes [12]: significantly decreased

Compound: YGRKKRRQRRRTPQRSGSVSNYRSCQR [Pa496h]
- injury to the liver [13]: without causing injury to the liver
- cytotoxicity [10]: > 90%
- growth of colon carcinoma Caco2 cells [11]: could inhibit
- decrease of hepatocytes' viability [14]: 19.8%
- viability of human primary hepatocytes ([14]; 100 μM): did not significantly affected
